For this assay, the target named is T1, mouse DP receptors (Mus musculus, UniProt P70263).
T1 construct: expressed in transfected cells; host or cells: CHO cells (membrane preparation)
T1 sequence (P70263 1-357): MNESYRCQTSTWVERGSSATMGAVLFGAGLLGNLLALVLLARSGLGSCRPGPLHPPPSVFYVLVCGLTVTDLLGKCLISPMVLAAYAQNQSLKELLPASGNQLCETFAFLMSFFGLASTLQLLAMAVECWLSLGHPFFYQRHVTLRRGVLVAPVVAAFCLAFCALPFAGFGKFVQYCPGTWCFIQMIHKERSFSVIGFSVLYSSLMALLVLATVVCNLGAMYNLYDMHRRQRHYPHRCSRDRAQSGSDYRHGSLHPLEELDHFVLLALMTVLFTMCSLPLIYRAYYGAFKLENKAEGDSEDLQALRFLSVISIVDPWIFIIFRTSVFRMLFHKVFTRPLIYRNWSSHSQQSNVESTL
Kind of assay: Receptor binding test using prostanoid DP receptor-expressing cells (3H-PGD2 binding inhibition). To be noted: membrane of CHO cells expressing mouse DP receptors; 3H-PGD2 2.5 nmol/L; Ki=IC50/(1+([L]*/Kd)). On the procedure: (i) Receptor Binding Test Using Prostanoid DP Receptor-Expressing Cells
CHO cells expressing mouse DP receptors were prepared according to the method of Hirata et al. (Proc. Natl. Acad. Sci., 91, 11192–11196 (1994)) and used as a membrane standard.
A reaction solution (200 μL) containing the prepared membrane standard (30–166 μg) and ^3H-PGD2 was incubated at room temperature for 20 minutes. The reaction was stopped with an ice-cold buffer (1 mL) and the binding ^3H-PGD2 was trapped in on a glass filter by immediate aspiration-filtration under a reduced pressure, and its binding radioactivity was measured using a liquid scintillation counter.
Kd value and Bmax value were obtained from Scatchard plots (Ann. N. Y. Acad. Sci., 51, 660 (1949)]. Non-specific binding was obtained as the binding radioactivity in the presence of unlabeled PGD2 at an excess amount (10 μmol/L). 3H-PGD2 binding inhibition by the compound of the present invention was measured by adding ^3H-PGD2 (2.5 nmol/L) and the compound of the present invention as various concentrations. Also, the following buffers were used for the reactions.
The dissociation constant (Ki) (μmol/L) of each compound was obtained by the following equation. Ki=IC50/(1+([L]*/Kd)) • [L*]: Concentration of radioligand

Molecules are shown by their SMILES.

One may read the Ki as a dissociation constant, usually derived from enzyme kinetics or from competition with a known ligand. A high value points to weaker binding.

As for `Cc1cc2c(CC(=O)O)cccc2n1C(=O)c1ccc(OC[C@H]2Cc3ccccc3O2)cc1` [2(16), 1-(4-((2R)-2,3-dihydrobenzofuran-2-ylmethoxy)benzoyl)-2-methyl-1H-indol-4-ylacetic acid], the Ki was 31 nM.

The record behind these values is patent US7153852B2, “Indole compounds, process for producing the same and drugs containing the same as the active ingredient” (Ono Pharmaceutical Co., Ltd., priority 2001, dated 2006).
